We go through 49 substances from the OligoGym collection.

One data set has as its target UBE2C. Put plainly: reporter assay of Huesken 2005. Particulars: siRNA. (In general: In a reporter assay the amount or activity of a reporter protein is the signal.)
In another data set the target is P2rx2 (rat). Description: reporter assay of Huesken 2005. Particulars: siRNA.

Oligonucleotides are written 5' to 3', each unit as a sugar letter and its base; * is a phosphorothioate linkage, no mark a phosphodiester; rarer units and linkages stand in square brackets, end groups in braces. Plain capitals give the bases only. d = 2'-deoxy (DNA); r = 2'-OH (RNA)
Also: test concentration or dose not given here.

Regarding “sense rArArUrGrCrGrCrCrCrArCrArGrUrGrArArGrUdTdT / antisense rArCrUrUrCrArCrUrGrUrGrGrGrCrGrCrArUrUdGdT”, in the data set with UBE2C, the normalised inhibition (eCFP-eYFP dual reporter) came out at 57.6%.

For the substance “sense rArArCrArUrUrGrArUrArGrUrCrCrCrUrUrGrAdTdT / antisense rUrCrArArGrGrGrArCrUrArUrCrArArUrGrUrUdGdG”, in the data set with UBE2C, the normalised inhibition (eCFP-eYFP dual reporter) amounted to 93.1%.

Consider “sense rGrArArCrArGrUrArUrArUrGrArArGrArCrCrUdTdT / antisense rArGrGrUrCrUrUrCrArUrArUrArCrUrGrUrUrCdCdA”, for which the normalised inhibition (eCFP-eYFP dual reporter) in the data set with UBE2C was 86.9%.

Turning to “sense rCrUrUrCrUrArGrGrArGrArArCrCrCrArArCrAdTdT / antisense rUrGrUrUrGrGrGrUrUrCrUrCrCrUrArGrArArGdGdC”, in the data set with UBE2C, the normalised inhibition (eCFP-eYFP dual reporter) is 86.1%.

The substance “sense rArCrArUrArUrGrCrCrUrGrGrArCrArUrCrCrUdTdT / antisense rArGrGrArUrGrUrCrCrArGrGrCrArUrArUrGrUdTdA” gave a normalised inhibition (eCFP-eYFP dual reporter) with UBE2C of 75.7%.

Take “sense rGrCrUrArUrCrArCrCrCrCrArArCrGrUrGrGrAdTdT / antisense rUrCrCrArCrGrUrUrGrGrGrGrUrGrArUrArGrCdAdG”: in the data set with UBE2C, the normalised inhibition (eCFP-eYFP dual reporter) was determined as 89.4%.

“sense rGrUrGrGrCrUrArCrCrCrUrUrArCrArArUrGrCdTdT / antisense rGrCrArUrUrGrUrArArGrGrGrUrArGrCrCrArCdTdG” came in with a normalised inhibition (eCFP-eYFP dual reporter) with UBE2C of 87.8%.

For the substance “sense rCrCrGrGrArGrArGrCrUrCrCrArUrCrArUrCrAdTdT / antisense rUrGrArUrGrArUrGrGrArGrCrUrCrUrCrCrGrGdTdC”, the normalised inhibition (eCFP-eYFP dual reporter) with P2rx2 (rat) is 54.2%.

In the case of “sense rGrCrCrArCrCrCrArGrCrCrCrUrCrCrArUrCrAdTdT / antisense rUrGrArUrGrGrArGrGrGrCrUrGrGrGrUrGrGrCdTdG”, the normalised inhibition (eCFP-eYFP dual reporter) with P2rx2 (rat) came out at 60.8%.

With “sense rCrUrCrCrUrUrCrCrUrGrUrGrUrGrArCrUrGrGdTdT / antisense rCrCrArGrUrCrArCrArCrArGrGrArArGrGrArGdCdC”, the normalised inhibition (eCFP-eYFP dual reporter) in the data set with P2rx2 (rat) was determined as 47.5%.

In the data set with P2rx2 (rat), “sense rGrGrUrGrCrGrGrArArUrCrGrGrCrGrCrCrUrGdTdT / antisense rCrArGrGrCrGrCrCrGrArUrUrCrCrGrCrArCrCdAdC” registered a normalised inhibition (eCFP-eYFP dual reporter) of 69.3%.

Substance “sense rGrGrCrArGrGrGrArArArUrUrCrArGrUrCrUrCdTdT / antisense rGrArGrArCrUrGrArArUrUrUrCrCrCrUrGrCrCdTdG” had a normalised inhibition (eCFP-eYFP dual reporter) in the data set with P2rx2 (rat) of 51.5%.

Regarding “sense rCrArGrUrGrUrArGrUrCrArGrCrArUrCrArUrCdTdT / antisense rGrArUrGrArUrGrCrUrGrArCrUrArCrArCrUrGdCdC”, the normalised inhibition (eCFP-eYFP dual reporter) with P2rx2 (rat) was 78.4%.

In the data set with P2rx2 (rat), “sense rGrGrGrArArArUrUrCrArGrUrCrUrCrArUrUrCdTdT / antisense rGrArArUrGrArGrArCrUrGrArArUrUrUrCrCrCdTdG” gave a normalised inhibition (eCFP-eYFP dual reporter) of 72.6%.

For the substance “sense rCrCrArArGrArCrCrUrGrCrGrArGrGrUrGrUrCdTdT / antisense rGrArCrArCrCrUrCrGrCrArGrGrUrCrUrUrGrGdAdG”, in the data set with P2rx2 (rat), the normalised inhibition (eCFP-eYFP dual reporter) worked out at 68.7%.

In the data set with P2rx2 (rat), “sense rCrUrGrArCrArArCrCrArUrUrUrUrCrUrGrGrGdTdT / antisense rCrCrCrArGrArArArArUrGrGrUrUrGrUrCrArGdAdA” displayed a normalised inhibition (eCFP-eYFP dual reporter) of 40.3%.

Substance “sense rGrArCrCrCrUrGrCrCrUrCrCrUrCrArGrGrCrUdTdT / antisense rArGrCrCrUrGrArGrGrArGrGrCrArGrGrGrUrCdAdT” returned a normalised inhibition (eCFP-eYFP dual reporter) with P2rx2 (rat) of 61.9%.

Regarding “sense rCrGrUrGrCrArGrArArArArGrCrUrArCrCrArGdTdT / antisense rCrUrGrGrUrArGrCrUrUrUrUrCrUrGrCrArCrGdAdT”, the normalised inhibition (eCFP-eYFP dual reporter) with P2rx2 (rat) is 80.5%.

Regarding “sense rGrCrUrCrUrArCrCrUrGrCrCrArUrUrCrArGrAdTdT / antisense rUrCrUrGrArArUrGrGrCrArGrGrUrArGrArGrCdTdG”, the normalised inhibition (eCFP-eYFP dual reporter) in the data set with P2rx2 (rat) turned out to be 79.4%.

In the case of “sense rCrUrUrGrGrCrCrArGrCrArUrArUrGrGrGrArCdTdT / antisense rGrUrCrCrCrArUrArUrGrCrUrGrGrCrCrArArGdTdG”, the normalised inhibition (eCFP-eYFP dual reporter) with P2rx2 (rat) turned out to be 52%.

On to “sense rArGrGrGrCrArCrUrGrUrGrUrArCrCrCrUrArUdTdT / antisense rArUrArGrGrGrUrArCrArCrArGrUrGrCrCrCrUdGdT”, for which the normalised inhibition (eCFP-eYFP dual reporter) in the data set with P2rx2 (rat) came to 55%.

Consider “sense rUrGrCrCrArArGrUrArUrUrArCrArArGrArUrAdTdT / antisense rUrArUrCrUrUrGrUrArArUrArCrUrUrGrGrCrAdAdA”, for which the normalised inhibition (eCFP-eYFP dual reporter) in the data set with P2rx2 (rat) is 76.8%.

In turn, “sense rGrGrArGrArGrArArCrUrUrCrArCrArGrArArCdTdT / antisense rGrUrUrCrUrGrUrGrArArGrUrUrCrUrCrUrCrCdTdG” registered a normalised inhibition (eCFP-eYFP dual reporter) with P2rx2 (rat) of 61.7%.

In the case of “sense rArArArUrUrUrCrArCrCrArUrCrCrUrCrArUrCdTdT / antisense rGrArUrGrArGrGrArUrGrGrUrGrArArArUrUrUdGdG”, the normalised inhibition (eCFP-eYFP dual reporter) with P2rx2 (rat) came out at 23.6%.

In the data set with P2rx2 (rat), “sense rUrGrGrCrUrGrUrCrCrArGrUrCrUrCrCrUrCrGdTdT / antisense rCrGrArGrGrArGrArCrUrGrGrArCrArGrCrCrAdGdT” had a normalised inhibition (eCFP-eYFP dual reporter) of 67.4%.

Consider “sense rArArGrCrCrUrArUrGrGrGrArUrUrCrGrArArUdTdT / antisense rArUrUrCrGrArArUrCrCrCrArUrArGrGrCrUrUdTdG”, for which, in the data set with P2rx2 (rat), the normalised inhibition (eCFP-eYFP dual reporter) was determined as 76%.

In the data set with P2rx2 (rat), “sense rArArCrUrGrUrGrArCrCrUrGrGrArCrUrUrGrUdTdT / antisense rArCrArArGrUrCrCrArGrGrUrCrArCrArGrUrUdCdC” registered a normalised inhibition (eCFP-eYFP dual reporter) of 38.6%.

Substance “sense rArCrUrCrCrCrArGrGrArUrCrArGrCrCrArCrCdTdT / antisense rGrGrUrGrGrCrUrGrArUrCrCrUrGrGrGrArGrUdAdG” had a normalised inhibition (eCFP-eYFP dual reporter) with P2rx2 (rat) of 44.7%.

Turning to “sense rArCrGrUrCrUrUrCrArUrCrGrUrGrCrArGrArAdTdT / antisense rUrUrCrUrGrCrArCrGrArUrGrArArGrArCrGrUdAdC”, in the data set with P2rx2 (rat), the normalised inhibition (eCFP-eYFP dual reporter) came to 85.2%.

In turn, “sense rGrArCrArGrCrUrGrGrArCrArUrGrCrArArGrGdTdT / antisense rCrCrUrUrGrCrArUrGrUrCrCrArGrCrUrGrUrCdCdG” had a normalised inhibition (eCFP-eYFP dual reporter) in the data set with P2rx2 (rat) of 35.3%.

Turning to “sense rCrGrGrArArGrArCrArArArGrUrGrUrGrGrGrAdTdT / antisense rUrCrCrCrArCrArCrUrUrUrGrUrCrUrUrCrCrGdAdC”, the normalised inhibition (eCFP-eYFP dual reporter) in the data set with P2rx2 (rat) is 64.6%.

In the data set with P2rx2 (rat), “sense rUrCrArArGrUrArGrArUrGrGrCrCrUrGrUrGrAdTdT / antisense rUrCrArCrArGrGrCrCrArUrCrUrArCrUrUrGrAdGdG” displayed a normalised inhibition (eCFP-eYFP dual reporter) of 67.1%.

The substance “sense rUrCrArGrCrCrArCrCrCrArGrCrCrCrUrCrCrAdTdT / antisense rUrGrGrArGrGrGrCrUrGrGrGrUrGrGrCrUrGrAdTdC” had a normalised inhibition (eCFP-eYFP dual reporter) in the data set with P2rx2 (rat) of 51.2%.

The substance “sense rCrUrGrGrArArCrUrGrUrGrArCrCrUrGrGrArCdTdT / antisense rGrUrCrCrArGrGrUrCrArCrArGrUrUrCrCrArGdTdT” gave a normalised inhibition (eCFP-eYFP dual reporter) with P2rx2 (rat) of 70.3%.

Consider “sense rGrArUrCrArGrGrArCrUrCrUrGrArCrCrCrArUdTdT / antisense rArUrGrGrGrUrCrArGrArGrUrCrCrUrGrArUrCdAdA”, for which the normalised inhibition (eCFP-eYFP dual reporter) in the data set with P2rx2 (rat) came out at 81.3%.

For the substance “sense rUrUrGrCrArArGrCrCrArGrArArGrArGrUrGrAdTdT / antisense rUrCrArCrUrCrUrUrCrUrGrGrCrUrUrGrCrArAdTdG”, the normalised inhibition (eCFP-eYFP dual reporter) with P2rx2 (rat) is 72.8%.

Regarding “sense rGrGrGrArUrUrCrGrCrArCrArGrGrGrCrArCrUdTdT / antisense rArGrUrGrCrCrCrUrGrUrGrCrGrArArUrCrCrCdAdT”, the normalised inhibition (eCFP-eYFP dual reporter) in the data set with P2rx2 (rat) was determined as 66%.

“sense rCrArUrCrUrCrUrGrCrUrCrUrGrArCrUrGrArGdTdT / antisense rCrUrCrArGrUrCrArGrArGrCrArGrArGrArUrGdGdA” registered a normalised inhibition (eCFP-eYFP dual reporter) with P2rx2 (rat) of 42.7%.

On to “sense rArCrArArGrArUrArArArCrGrGrCrArCrUrArCdTdT / antisense rGrUrArGrUrGrCrCrGrUrUrUrArUrCrUrUrGrUdAdA”, for which, in the data set with P2rx2 (rat), the normalised inhibition (eCFP-eYFP dual reporter) stood at 50.6%.

The substance “sense rArCrUrUrCrUrGrArCrArArCrCrArUrUrUrUrCdTdT / antisense rGrArArArArUrGrGrUrUrGrUrCrArGrArArGrUdTdC” registered a normalised inhibition (eCFP-eYFP dual reporter) in the data set with P2rx2 (rat) of 33.5%.

As to “sense rArCrCrArGrGrArCrArGrCrGrArGrArCrCrGrGdTdT / antisense rCrCrGrGrUrCrUrCrGrCrUrGrUrCrCrUrGrGrUdAdG”, in the data set with P2rx2 (rat), the normalised inhibition (eCFP-eYFP dual reporter) stood at 49.5%.

“sense rUrCrArUrCrArArGrArArCrArGrCrArUrCrCrAdTdT / antisense rUrGrGrArUrGrCrUrGrUrUrCrUrUrGrArUrGrAdGdG” had a normalised inhibition (eCFP-eYFP dual reporter) with P2rx2 (rat) of 53.7%.

“sense rCrUrArCrArArCrUrUrCrArGrGrUrUrUrGrCrCdTdT / antisense rGrGrCrArArArCrCrUrGrArArGrUrUrGrUrArGdCdC” yielded a normalised inhibition (eCFP-eYFP dual reporter) with P2rx2 (rat) of 57%.

“sense rUrUrCrArCrArGrCrUrCrUrArCrCrUrGrCrCrAdTdT / antisense rUrGrGrCrArGrGrUrArGrArGrCrUrGrUrGrArAdCdC” displayed a normalised inhibition (eCFP-eYFP dual reporter) with P2rx2 (rat) of 51.7%.

As for “sense rUrCrUrCrArUrCrCrUrGrCrUrUrUrArCrUrUrCdTdT / antisense rGrArArGrUrArArArGrCrArGrGrArUrGrArGrAdAdG”, the normalised inhibition (eCFP-eYFP dual reporter) in the data set with P2rx2 (rat) turned out to be 61.3%.

Turning to “sense rGrCrArUrCrArUrCrArCrCrArGrGrArUrCrGrAdTdT / antisense rUrCrGrArUrCrCrUrGrGrUrGrArUrGrArUrGrCdTdG”, the normalised inhibition (eCFP-eYFP dual reporter) in the data set with P2rx2 (rat) worked out at 78.5%.

In turn, “sense rGrArArArUrUrCrArGrUrCrUrCrArUrUrCrCrCdTdT / antisense rGrGrGrArArUrGrArGrArCrUrGrArArUrUrUrCdCdC” yielded a normalised inhibition (eCFP-eYFP dual reporter) with P2rx2 (rat) of 39.7%.

As for “sense rArArArGrUrCrArArGrGrGrGrArUrCrArCrCrAdTdT / antisense rUrGrGrUrGrArUrCrCrCrCrUrUrGrArCrUrUrUdGdG”, the normalised inhibition (eCFP-eYFP dual reporter) with P2rx2 (rat) is 66.2%.

With “sense rCrArUrCrArUrCrArCrCrArArArGrUrCrArArGdTdT / antisense rCrUrUrGrArCrUrUrUrGrGrUrGrArUrGrArUrGdGdA”, the normalised inhibition (eCFP-eYFP dual reporter) with P2rx2 (rat) worked out at 71.5%.
